Here are results for seven molecules from the supplement of paper PMC11061612.

Assay [1] concerns EMC-BAC-2 (Non-Small Cell Lung Carcinoma). Put plainly: Bliss excess, mean over the matrix (fraction); higher = more synergy. A digest of the protocol:
(§1)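 Cell lines in DMEM/F12 or RPMI with 10% FBS were plated in 1536-well plates, held 24 hours at 37°C, 5% CO2, then given two-drug dose matrices for 72 hours (DMSO typically 0.2%). Viability was read by CellTiter-Glo 2.0 luminescence and scaled as inhibition from 0 (vehicle wells) to 1 (blank wells). Combination Emax is the second-highest inhibition in the matrix; Bliss excess is observed combination effect minus expected EA + EB − EA·EB, EA and EB being single-agent effects.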

In the next assay the test system is GI-1 (Glioblastoma). Described as above. A digest of the protocol:
as §1

Another assay deals with IMR-5 (Neuroblastoma). Described as above. In a few lines:
as §1

Assay [2] deals with KYSE-150 (Esophageal Squamous Cell Carcinoma). Described as above. In a few lines: as §1
Assay [3] has as its system KYSE-50 (Esophageal Squamous Cell Carcinoma). The description is as above. A digest of the protocol:
as §1

The next assay relates to NB7 (Neuroblastoma). The description is as above. A digest of the protocol:
as §1

Assay [4] concerns NCI-H1573 (Lung Adenocarcinoma). Described as above. In a few lines:
as §1

Assay [5] concerns NCI-H2347 (Lung Adenocarcinoma). The assay is described as above. A digest of the protocol:
as §1

For assay [6], the system named is NCI-N87 (Gastric Carcinoma). The description is as above. In a few lines:
as §1

Assay [7] relates to OCUM-1 (Gastric Carcinoma). The assay is described as above. In a few lines:
as §1

For assay [8], the system named is PF-382 (T-Lymphoblastic Leukemia). The assay is described as above. A digest of the protocol:
as §1

The next assay has as its system RPMI-7951 (Melanoma). The description is as above. In a few lines:
as §1

For assay [9], the system named is SNU-C1 (Colorectal Carcinoma). The description is as above. In a few lines: as §1
For assay [10], the system named is ASH-3 (Thyroid Gland Carcinoma). In words: combination Emax (second highest fraction inhibited in the dose matrix, 72 h); higher = more inhibition; extreme values may be limits of the assay. In a few lines:
as §1

For another assay, the system named is EW-18 (Ewing's Sarcoma). The assay is described as above. A digest of the protocol: as §1
Assay [11] relates to KINGS-1 (Low Grade Glioma). The assay is described as above. In a few lines: as §1
Assay [12] relates to LOU-NH91 (Squamous Cell Lung Carcinoma). Described as above. A digest of the protocol:
as §1

Assay [13] has as its system OCUM-1 (Gastric Carcinoma). Described as above. In a few lines: as §1
For assay [14], the system named is SNU-C1 (Colorectal Carcinoma). The description is as above. A digest of the protocol:
as §1

Assay [15] has as its system VMRC-LCD (Lung Adenocarcinoma). Described as above. In a few lines: as §1
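Throughout, for Bliss excess, mean over the matrix: after 72 h of two-drug dosing.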

Regarding `COc1cccc(OCCCN)c1-c1cc(Nc2cnc(C#N)cn2)n[nH]1` [Prexasertib] + Cc1cc2ncnn2cc1Nc1ncc2c(n1)n(C1CCOCC1)c(=O)n2C [AZD7648] (first compound max 1 µM, 7x7, partner max 10 µM), the Bliss excess in [1] was -0.019; in the assay on GI-1 (Glioblastoma), -0.019; with IMR-5 (Neuroblastoma) it was -0.0065; in [2], -0.0312; in [3], -0.0296; with NB7 (Neuroblastoma), -0.0195. Besides, the Bliss excess was 0.0058 in assay [4]; -0.0552 in assay [5]; -0.0119 in assay [6]; 0.0005 in assay [7]; -0.0131 in assay [8]; 0.0049 in the assay with RPMI-7951 (Melanoma). Further, the Bliss excess in assay [9] is -0.0873. Moreover, the “combination Emax” value in [10] is 0.648; in the assay on EW-18 (Ewing's Sarcoma) it was 0.742; in [11], 0.607; in assay [12] it was 0.44; in assay [13], 0.803; in assay [14], 0.759. Also, in assay [15], the “combination Emax” value amounted to 0.749.
As to `CN(CCO)CC[C@H](CSc1ccccc1)Nc1ccc(S(=O)(=O)NC(=O)c2ccc(N3CCC([C@@H](O)c4ccccc4-c4ccc(Cl)cc4)CC3)cc2)cc1S(=O)(=O)C(F)(F)F` [AZD4320] + C[C@@H](Nc1cc(F)cc(F)c1)c1cc(C(=O)N(C)C)cc2c(=O)cc(N3CCOCC3)oc12 [AZD8186] (first compound max 1 µM, 7x7, partner max 3 µM), the Bliss excess in assay [1] was 0.0472; in the assay on GI-1 (Glioblastoma), -0.0011; in the assay on IMR-5 (Neuroblastoma), 0.0508; in assay [2], -0.0055; in assay [3], 0.0097; with NB7 (Neuroblastoma), 0.0133. In addition, the Bliss excess in [4] is -0.0545; in assay [5], 0.126; in [6], 0.0029; in [7], -0.0284; in [8], 0.0836; in the assay on RPMI-7951 (Melanoma) it was 0.0019. For the same molecule, in assay [9], the Bliss excess is -0.0417. Also, the “combination Emax” value in assay [10] came to 0.682; with EW-18 (Ewing's Sarcoma), 0.914; in [11] it was 0.629; in assay [12], 0.768; in assay [13], 0.884; in assay [14], 0.484. Moreover, the “combination Emax” value in [15] amounted to 0.249.
In the case of `C[C@@H]1COCCN1c1cc(C2([S@](C)(=N)=O)CC2)nc(-c2ccnc3[nH]ccc23)n1` [AZD6738] + O=C(c1cc(Cc2n[nH]c(=O)c3ccccc23)ccc1F)N1CCN(C(=O)C2CC2)CC1 [Olaparib] (first compound max 10 µM, 7x7, partner max 10 µM), the Bliss excess in [1] is -0.007; with GI-1 (Glioblastoma), 0.0039; in the assay on IMR-5 (Neuroblastoma), 0.0432; in [2] it was 0.0376; in assay [3] it was -0.0202; with NB7 (Neuroblastoma), 0.0202. Besides, the Bliss excess is 0.0201 in [4]; -0.0515 in [5]; 0.0043 in [6]; -0.0399 in assay [7]; -0.0167 in assay [8]; 0.0207 in the assay on RPMI-7951 (Melanoma). The Bliss excess in assay [9] was -0.0345. The “combination Emax” value amounted to 0.652 in assay [10]; 0.666 in the assay on EW-18 (Ewing's Sarcoma); 0.376 in assay [11]; 0.236 in assay [12]; 0.675 in [13]; 0.347 in [14]. Moreover, in assay [15], the “combination Emax” value turned out to be 0.562.
As to `C[C@@H](c1ccc2nccn2c1)n1nnc2ncc(-c3cnn(C)c3)nc21` [Savolitinib] + Cc1c2c(nn1C)CSCc1cc(n(C)n1)CSc1cc(c3ccccc3c1)OCCCc1c(C(=O)O)n(C)c3c-2c(Cl)ccc13 [AZD5991] (first compound max 1 µM, 7x7, partner max 1 µM), the Bliss excess in assay [1] is -0.0767; with GI-1 (Glioblastoma), 0.0227; in the assay with IMR-5 (Neuroblastoma), 0.0026; in assay [2], -0.0428; in [3], -0.0382; in the assay with NB7 (Neuroblastoma), -0.0221. Besides, the Bliss excess in assay [4] was -0.036; in assay [5], -0.0559; in [6] it was -0.0513; in [7] it was -0.0085; in assay [8], -0.0272; in the assay on RPMI-7951 (Melanoma), -0.0199. For the same molecule, the Bliss excess in [9] was -0.0558. The “combination Emax” value in [10] turned out to be 0.299; with EW-18 (Ewing's Sarcoma), 0.874; in assay [11], 0.323; in assay [12], 0.199; in assay [13], 0.257; in assay [14], 0.396. Further, the “combination Emax” value in assay [15] is 0.154.
In the case of `COc1nnc2ccc(N3CCC(c4ccc(OCCN5CCN(C)C(=O)[C@H]5C)cc4)CC3)nn12` [AZD5153] + C[C@@H]1COCCN1C2=NC(=NC(=C2)C3(CC3)[S@](=N)(=O)C)C4=C5C=CNC5=NC=C4 [AZD6738] (first compound max 1 µM, 7x7, partner max 10 µM), the Bliss excess was 0.0722 in assay [1]; 0.0053 in the assay on GI-1 (Glioblastoma); 0.0121 with IMR-5 (Neuroblastoma); -0.0482 in assay [2]; 0.0172 in assay [3]; -0.0111 in the assay on NB7 (Neuroblastoma). Further, the Bliss excess in assay [4] was 0.0531; in assay [5], 0.0599; in assay [6] it was -0.0135; in [7], 0.0413; in assay [8], 0.0239; in the assay on RPMI-7951 (Melanoma) it was 0.0423. Besides, the Bliss excess in assay [9] is -0.0404. Further, the “combination Emax” value is 0.852 in assay [10]; 0.781 with EW-18 (Ewing's Sarcoma); 0.281 in assay [11]; 0.871 in assay [12]; 0.641 in assay [13]; 0.693 in assay [14]. The “combination Emax” value in [15] turned out to be 0.921.
Consider `Cc1c2c(nn1C)CSCc1cc(n(C)n1)CSc1cc(c3ccccc3c1)OCCCc1c(C(=O)O)n(C)c3c-2c(Cl)ccc13` [AZD5991] + CC1(C)CCC(CN2CCN(c3ccc(C(=O)NS(=O)(=O)c4ccc(NCC5CCOCC5)c([N+](=O)[O-])c4)c(Oc4cnc5[nH]ccc5c4)c3)CC2)=C(c2ccc(Cl)cc2)C1 [Venetoclax] (first compound max 1 µM, 7x7, partner max 1 µM), for which the Bliss excess in [1] is -0.0512; with GI-1 (Glioblastoma), 0.0476; with IMR-5 (Neuroblastoma), 0.0656; in assay [2] it was -0.0324; in assay [3], -0.0575; in the assay with NB7 (Neuroblastoma), -0.0612. Moreover, the Bliss excess is -0.036 in assay [4]; -0.0188 in assay [5]; -0.0041 in assay [6]; -0.0182 in [7]; 0.0223 in [8]; -0.0568 in the assay on RPMI-7951 (Melanoma). Moreover, the Bliss excess in [9] is -0.0458. Also, the “combination Emax” value in [10] came to 0.325; in the assay with EW-18 (Ewing's Sarcoma), 0.919; in [11], 0.266; in assay [12] it was 0.221; in assay [13] it was 0.0835; in [14], 0.574. In addition, the “combination Emax” value in assay [15] is 0.164.
Take `CC1(C)CCC(CN2CCN(c3ccc(C(=O)NS(=O)(=O)c4ccc(NCC5CCOCC5)c([N+](=O)[O-])c4)c(Oc4cnc5[nH]ccc5c4)c3)CC2)=C(c2ccc(Cl)cc2)C1` [Venetoclax] + CCN(CCO)CCCOc1ccc2c(Nc3cc(CC(=O)Nc4cccc(F)c4)[nH]n3)ncnc2c1 [AZD2811] (first compound max 1 µM, 7x7, partner max 1 µM): the Bliss excess was -0.0038 in assay [1]; 0.0405 in the assay with GI-1 (Glioblastoma); -0.0014 in the assay on IMR-5 (Neuroblastoma); 0.0115 in [2]; 0.0025 in [3]; 0.0098 in the assay with NB7 (Neuroblastoma). Also, the Bliss excess is -0.0246 in [4]; -0.053 in assay [5]; -0.004 in assay [6]; 0.0236 in [7]; 0.0279 in assay [8]; 0.0107 with RPMI-7951 (Melanoma). The Bliss excess in assay [9] was -0.0321. The “combination Emax” value was 0.318 in assay [10]; 0.707 in the assay with EW-18 (Ewing's Sarcoma); 0.243 in [11]; 0.307 in [12]; 0.53 in [13]; 0.266 in [14]. In addition, the “combination Emax” value in [15] was 0.626.
